# Data published in US8058442B2 (Technion Research and Development Foundation Ltd., priority 2002, dated 2011).
# Structures can show the parent of a compound that is named as a salt.
# Key:
# [1] = test system: PC12 cells; experiment: Neuroprotection of PC12 cells against serum-deprivation induced apoptosis (MTT test); type: cell-based, rat
# Protocol: Rat PC12 cells, originated from rat pheochromocytoma, were grown at 37° C., in a humid 5% CO2, 95% air environment, in a growth medium containing Dulbecco's modified Eagle's Medium (DMEM, GIBCO, BRL) supplemented with glucose (1 mg/1 ml), 5% fetal calf serum, 10% horse serum, and 1% of a mixture of streptomycin/penicillin. On confluence, the culture was removed and the cells were detached by vigorous washing, centrifuged at 200 g for 5 min and resuspended in DMEM with full serum content. 0.5×10^4 cells/well were placed in microtiter plates (96 wells) precoated with collagen (10 μg/cm^2 were allowed to attach for 24 h before treatment).
# Twenty-four hours after attachment of the PC12 cells as described in (g), the medium was replaced with DMEM containing 0.1% BSA. The test compounds were added to the cells after 1 h of incubation. After 24 h incubation, the cells were subjected to MTT test as previously described (Gassen et al., 1998). The absorption was determined in a Perkin-Elmer Dual Wavelength Eliza-Reader at λ=570/650 nm after automatic subtraction of background readings. The results are expressed as percentage of the untreated control.
# PC12 cells were grown in serum-free medium alone or in serum-free medium with different concentration of the chelators VK-28, M32, HLA20 and Rasagiline. After 24 h incubation, the cells were subjected to MTT test.
# Cell viability was expressed as a percentage of cells cultured in medium supplemented with serum, which served as the control group and was designated as 100%. […] Experimental data are shown as mean±SD (r=6).
# [2] = target: T1, rat brain MAO-A (Rattus norvegicus, UniProt P21396); experiment: In vitro inhibition of rat brain MAO-A; type: biochemical; details: rat brain homogenate
# T1 construct: from tissue; host or cells: rat brain homogenate, 4500 g pellet
# T1 sequence (P21396 1-526): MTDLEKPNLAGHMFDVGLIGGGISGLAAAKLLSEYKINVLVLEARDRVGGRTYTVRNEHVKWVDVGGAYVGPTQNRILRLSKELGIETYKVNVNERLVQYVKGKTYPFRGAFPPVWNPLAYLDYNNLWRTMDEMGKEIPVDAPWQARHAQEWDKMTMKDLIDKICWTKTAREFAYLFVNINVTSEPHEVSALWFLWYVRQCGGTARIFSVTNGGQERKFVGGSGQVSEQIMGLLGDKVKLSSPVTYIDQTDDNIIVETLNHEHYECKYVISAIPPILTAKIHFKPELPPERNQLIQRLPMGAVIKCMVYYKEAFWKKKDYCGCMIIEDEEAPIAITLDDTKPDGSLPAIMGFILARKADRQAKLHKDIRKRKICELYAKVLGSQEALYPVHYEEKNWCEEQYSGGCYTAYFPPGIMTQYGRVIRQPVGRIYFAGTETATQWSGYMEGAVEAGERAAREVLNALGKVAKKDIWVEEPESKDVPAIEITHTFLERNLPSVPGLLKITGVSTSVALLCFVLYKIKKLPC
# Protocol: (§1) Rats were decapitated and the brains were quickly taken into a weighted ice-cold sucrose buffer (0.32 M), and their weights were determined. All subsequent procedures were performed at 0-4° C. The brains were homogenized in 0.25 M sucrose (one part tissue to 20 parts sucrose) in a Teflon glass homogenizer followed by the addition of sucrose buffer to a final concentration of 10% homogenate. The homogenates were centrifuged at 600 g for 15 min. The supernatant fraction was taken out and centrifuged at 4500 g for 30 min, the pellet was diluted in 0.32 M sucrose buffer and kept frozen for later assaying of MAO. Protein concentration was determined with Bradford reagent at 595 nm, using bovine serum albumin as a standard.
# (§2) The test compound was added to a suitable dilution of the enzyme preparation (70 μg protein for MAO-B and 150 μg MAO-A assay) in 0.05 M phosphate buffer (pH 7.4). The mixture was incubated together with […], a specific inhibitor of MAO-B (for determination of MAO-A) or […] clorgylin, a specific inhibitor of MAO-A (for determination of MAO-B). Incubation was carried for 1 h at 37° C. before addition of ^14C-5-hydroxytryptamine binoxalate ([…]) for determination of MAO-A, or ^14C-phenylethylamine 100 µM for determination of MAO-B, and incubation continued for 30 min or 20 min, respectively. The reaction was stopped with 2 M ice-cold citric acid, and the metabolites were extracted and determined by liquid-scintillation counting in cpm units.
# (§3) MAO-A and MAO-B activities were determined in rat brain homogenate in vitro following incubation with varying concentrations of the test compounds.
# In another experiment, the in vitro inhibitory activity of HLA20, M32, VK-28, M30, M31, and propargylamine (P) was tested against rat brain MAO-A. The test compounds were added to buffer containing 10^−7M deprenyl and were incubated with the tissue homogenate for 60 min at 37° C. before addition of ^14C-5-hydroxytryptamine. MAO-A activity in presence of the test compound was expressed as a percentage of that in control samples.
# [3] = target: T2, rat brain MAO-B (Rattus norvegicus, UniProt P19643); experiment: In vitro inhibition of rat brain MAO-B; type: biochemical; details: 100 μM; read-out: inhibition of MAO-B
# T2 construct: from tissue; host or cells: rat brain homogenate, 4500 g pellet
# T2 sequence (P19643 1-520): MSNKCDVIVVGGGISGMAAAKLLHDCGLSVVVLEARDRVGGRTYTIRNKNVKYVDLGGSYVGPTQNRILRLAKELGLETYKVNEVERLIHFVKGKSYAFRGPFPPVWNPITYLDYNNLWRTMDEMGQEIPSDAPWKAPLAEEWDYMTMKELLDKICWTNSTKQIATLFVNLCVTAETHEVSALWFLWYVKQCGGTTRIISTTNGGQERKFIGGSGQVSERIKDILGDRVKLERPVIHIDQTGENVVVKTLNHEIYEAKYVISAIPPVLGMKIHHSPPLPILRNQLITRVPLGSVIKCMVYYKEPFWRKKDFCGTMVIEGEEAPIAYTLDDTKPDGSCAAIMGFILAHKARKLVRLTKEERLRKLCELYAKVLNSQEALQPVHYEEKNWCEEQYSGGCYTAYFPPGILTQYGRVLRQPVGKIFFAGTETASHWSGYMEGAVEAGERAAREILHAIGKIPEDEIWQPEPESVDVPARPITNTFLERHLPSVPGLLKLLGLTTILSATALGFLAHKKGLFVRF
# Protocol: as §1, §2, §3
# MAO-B activity in presence of the test compound was expressed as a percentage of that in control samples.
melting point,effect on MAO-A [2],inhibition at 100 µM [3],SMILES,"number of survival cells (cell viability, % of cells cultured with serum) ([1]; 0.1 μM chelator, serum-free medium, 24 h, serum-free control 38%)","change in the protection against PC12 cell death induced by serum withdrawal ([1]; 1 or 10 μM, compared with 0.1 μM)"
194 °C (dec.),–,–,"NC(Cc1ccc(O)c2ncccc12)C(=O)O (racemic) (as salt: salt) [HLM8, DL-3-(8-hydroxyquinolin-5-yl)alanine]",–,–
–,almost no effect,17.2%,CCOC(=O)C(CS)NCc1ccc(O)c2ncccc12 (stereo not drawn) [Compound M32],59%,no significant change in the protection
153 to 154 °C,–,–,"CCOC(=O)C(C)(NC(=O)Cc1ccc(O)c2ncccc12)C(=O)OCC [HLM7, diethyl 8-hydroxyquinolin-5-yl-methyl-acetamidomalonate]",–,–
